Source: PubChem BioAssay (NCI)
“And” between values parts separate entries of the source, which are not always exact repeats. Identical values can stand only once.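 All cell lines were grown in 96-well plates and treated with compound for 48 hours. GI50: concentration for 50% inhibition of growth. At the TGI there is no net growth.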

Key:
Assay in all cases: NCI anticancer screen, dose series, 48 h
NCI-H23 lung = system: NCI-H23 lung
LOX IMVI melanoma = system: LOX IMVI melanoma
SN12C renal = system: SN12C renal
HOP-92 NSCLC = system: HOP-92 NSCLC
MALME-3M melanoma = system: MALME-3M melanoma
SF-539 CNS = system: SF-539 CNS
CAKI-1 renal = system: CAKI-1 renal
COLO 205 colon = system: COLO 205 colon
K-562 leukemia = system: K-562 leukemia
NCI-H522 lung = system: NCI-H522 lung

Cn1cnc([N+](=O)[O-])c1Sc1nc2cc(Cl)c(F)cc2[nH]1
TGI (NCI-H23 lung): 31.3 µM | TGI (LOX IMVI melanoma): 39.7 µM | TGI (SN12C renal): 29.7 µM | TGI (HOP-92 NSCLC): 28.9 µM | TGI (MALME-3M melanoma): 27.5 µM | TGI (SF-539 CNS): 16.7 µM | TGI (CAKI-1 renal): 14.4 µM | TGI (COLO 205 colon): 22 µM

Cc1c2cc[nH]c(C(F)(F)F)c2cc2c1nc1ccccc12
TGI (K-562 leukemia): > 125 µM | TGI (NCI-H23 lung): > 125 µM | TGI (NCI-H522 lung): > 125000 nM | TGI (LOX IMVI melanoma): > 125 µM | TGI (SN12C renal): > 125 µM | TGI (HOP-92 NSCLC): > 125 µM | TGI (MALME-3M melanoma): > 125 µM | TGI (SF-539 CNS): > 125 µM | TGI (CAKI-1 renal): > 125 µM | TGI (COLO 205 colon): > 125 µM

O=C(Nc1cccc2ccccc12)Oc1ccccc1C1CCCCC1
TGI (K-562 leukemia): 60.4 µM | TGI (NCI-H23 lung): 33.7 µM | TGI (LOX IMVI melanoma): 31.1 µM | TGI (SN12C renal): 30.1 µM | TGI (HOP-92 NSCLC): 30.7 µM | TGI (MALME-3M melanoma): 35.1 µM | TGI (SF-539 CNS): 32 µM

COC(=O)C(=O)C(C(=O)Nc1cccc(C)c1C)C1Sc2ccccc2NC1=O (stereo not drawn)
TGI (K-562 leukemia): > 25 µM | TGI (NCI-H23 lung): > 25 µM | TGI (NCI-H522 lung): > 25000 nM | TGI (LOX IMVI melanoma): > 25 µM | TGI (SN12C renal): > 25 µM | TGI (HOP-92 NSCLC): > 25 µM | TGI (MALME-3M melanoma): 24 µM | TGI (SF-539 CNS): > 25 µM | TGI (CAKI-1 renal): > 25 µM | TGI (COLO 205 colon): > 25 µM

FC(F)(F)c1ccc(-c2nc(-c3nc4cc(Cl)c(Cl)cc4[nH]3)c3ccccn23)cc1
GI50 (K-562 leukemia): > 100000 nM | TGI (K-562 leukemia): > 100 µM | GI50 (NCI-H23 lung): 6.57 µM | TGI (NCI-H23 lung): > 100 µM | GI50 (NCI-H522 lung): 10600 nM | TGI (NCI-H522 lung): > 100000 nM | GI50 (SN12C renal): > 100000 nM | TGI (SN12C renal): > 100 µM | GI50 (HOP-92 NSCLC): 2970 nM | TGI (HOP-92 NSCLC): 28.7 µM | GI50 (MALME-3M melanoma): 3560 nM | TGI (MALME-3M melanoma): > 100 µM | GI50 (COLO 205 colon): > 100000 nM | TGI (COLO 205 colon): > 100 µM

COc1cc2c(cc1OCCCN1CCN(CCCOc3cc4c(cc3OC)C(=O)N3CCC[C@H]3C=N4)CC1)C=CC(C)(C)O2
GI50 (K-562 leukemia): 320 nM | TGI (K-562 leukemia): 1.03 µM | GI50 (NCI-H23 lung): 1.53 µM | TGI (NCI-H23 lung): 3.04 µM | GI50 (NCI-H522 lung): 1480 nM | TGI (NCI-H522 lung): 4270 nM | GI50 (LOX IMVI melanoma): 755 nM | TGI (LOX IMVI melanoma): 2.09 µM | GI50 (SN12C renal): 584 nM | TGI (SN12C renal): 1.95 µM | GI50 (MALME-3M melanoma): 1900 nM | TGI (MALME-3M melanoma): 3.65 µM | GI50 (SF-539 CNS): 1260 nM | TGI (SF-539 CNS): 2.51 µM | GI50 (CAKI-1 renal): 827 nM | TGI (CAKI-1 renal): 2.12 µM | GI50 (COLO 205 colon): 1210 nM | TGI (COLO 205 colon): 2.61 µM

CCC1(O)CC(OC2CC(N(C)C)C(OC3CC4OC5CC(=O)C(C)OC5OC4C(C)O3)C(C)O2)c2c(cc3c(c2O)C(=O)c2c(O)ccc(O)c2C3=O)C1C(=O)OC (stereo not drawn)
GI50 (K-562 leukemia): 0.761 nM and 7.54 nM | GI50 (NCI-H522 lung): 1.11 nM and 7.88 nM | TGI (NCI-H522 lung): 31.9 nM and 12.2 nM and 18.2 nM | GI50 (LOX IMVI melanoma): 9.15 nM | TGI (HOP-92 NSCLC): 0.0828 µM and 0.0644 µM | GI50 (CAKI-1 renal): 2.51 nM and 7.63 nM

O=c1cnn(C/C=C\CO)c(=O)[nH]1
TGI (K-562 leukemia): > 100 µM | TGI (NCI-H23 lung): > 100 µM | TGI (NCI-H522 lung): > 100000 nM | TGI (LOX IMVI melanoma): > 100 µM | TGI (SN12C renal): > 100 µM | TGI (HOP-92 NSCLC): > 100 µM | TGI (MALME-3M melanoma): > 100 µM | TGI (SF-539 CNS): > 100 µM | TGI (CAKI-1 renal): > 100 µM | TGI (COLO 205 colon): > 100 µM
